Reference: patent US8937048B2, “Anti-angiogenic compounds” (Covx Technologies Ireland, Limited, priority 2008, dated 2015)
Where a SMILES comes first, the peptide text is derived from it. Bridges are numbered along the chain shown (N, C = ends). [ ]: non-standard residue; d: D form. Nle = CCCC[C@H](N)C(=O)O

target: T1, recombinant human VEGF165 (Homo sapiens, UniProt P15692); experiment: VEGF peptide binding assay (competition ELISA, VEGF165 binding to coated VEGFR2/Fc)
T1 sequence (P15692 27-191 isoform P15692-4): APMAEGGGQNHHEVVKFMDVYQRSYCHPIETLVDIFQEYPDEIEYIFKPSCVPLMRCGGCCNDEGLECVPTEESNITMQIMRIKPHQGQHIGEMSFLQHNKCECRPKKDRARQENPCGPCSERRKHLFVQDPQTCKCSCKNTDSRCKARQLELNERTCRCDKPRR
Description: High-binding half-well 96-well plates (Costar #3690) were coated with recombinant human VEGFR2/Fc (50 ng/well) in 50 μl PBS, and incubated at 4° C. overnight. After washing the plates three times with 1× washing buffer (KPL Cat#50-65-00) and blocking with Superblock (Scytek #AAA500) at room temperature (RT) for 1 hour, VEGF-peptides of the invention were serially diluted (concentrations: 0.128-10,000 nM) in the presence of 25 ng/ml of recombinant human VEGF165 in […] Superblock, and were then added to the 96-well plates and incubated at RT for 1 hour. Peptides of the invention tested in this fashion were all capped at the amino terminus with a C(O)CH3 group and at the carboxyl terminus with a NH2 group. The plates were then washed three times with washing buffer, and a diluted (1:500) biotinylated anti-human VEGF antibody (R&D systems, Cat# BAF293) was added and incubated at RT for 2 hours. After washing the plates, streptavidin HRP conjugate (1:200 in Superblock) (R&D systems, Cat# DY998) was added to detect the bound anti-VEGF antibody, followed by addition of tetramethylbenzidine (TMB) substrate (Pierce, Cat#34021) for color development. The reaction was stopped with 2 M H2SO4. OD450 was measured using SpectraMax (Molecular Device) with a correction wavelength of 540 nm. The data were analyzed using Prism software. OD450 values were plotted as a function of the concentrations of the VEGF peptides. IC50 values, indicative of the potency of the VEGF peptides to inhibit VEGF-VEGFR2 interaction, were obtained using a sigmoid dose-response curve fit in Prism.

SMILES	IC50 [nM]
CC[C@H](C)[C@@H]1NC(=O)[C@H](CC(=O)O)NC(=O)[C@@H](NC(=O)[C@H](CC(N)=O)NC(=O)[C@@H]2CCCN2C(=O)[C@H](CCC(=O)O)NC(=O)[C@@H](NC(C)=O)C(C)C)CSSC[C@@H](C(=O)N[C@@H](Cc2ccccc2)C(=O)N[C@@H](CCC(=O)O)C(=O)N[C@@H](CCCNC(=N)N)C(=O)N[C@@H](CC(C)C)C(=O)N[C@@H](Cc2ccc(O)cc2)C(N)=O)NC(=O)[C@H](CCC(=O)O)NC(=O)[C@H](Cc2c[nH]c3ccccc23)NC(=O)[C@H](C(C)C)NC(=O)[C@H](Cc2c[nH]c3ccccc23)NC(=O)[C@H](CCSC)NC(=O)[C@H](C(C)C)NC(=O)[C@H](Cc2c[nH]cn2)NC1=O [Compound 41, VEPNCDIHVMWVWECFERLY] (Ac-VEPNCDIHVMWVWECFERLY-NH2; disulfide 5-15 (inferred))	69.9
CC[C@H](C)[C@@H]1NC(=O)[C@H](CC(=O)O)NC(=O)[C@@H](NC(=O)[C@H](CC(N)=O)NC(=O)[C@@H]2CCCN2C(=O)[C@H](CCC(=O)O)NC(=O)[C@@H](NC(C)=O)C(C)C)CSSC[C@@H](C(=O)N[C@@H](Cc2ccccc2)C(=O)N[C@@H](CCC(=O)O)C(=O)N[C@@H](CCCNC(=N)N)C(=O)N[C@@H](CC(C)C)C(=O)N[C@@H](CCSC)C(=O)N[C@@H](CCCNC(=N)N)C(=O)N[C@@H](CCC(=O)O)C(=O)N[C@@H](CC(C)C)C(N)=O)NC(=O)[C@H](CCC(=O)O)NC(=O)[C@H](Cc2c[nH]c3ccccc23)NC(=O)[C@H](C(C)C)NC(=O)[C@H](Cc2c[nH]c3ccccc23)NC(=O)[C@H](CCSC)NC(=O)[C@H](C(C)C)NC(=O)[C@H](Cc2c[nH]cn2)NC1=O [Compound 63, VEPNCDIHVMWVWECFERLMREL] (Ac-VEPNCDIHVMWVWECFERLMREL-NH2; disulfide 5-15 (inferred))	24
CC[C@H](C)[C@@H]1NC(=O)[C@H](CC(=O)O)NC(=O)[C@@H](NC(=O)[C@H](CC(N)=O)NC(=O)[C@@H]2CCCN2C(=O)[C@H](CCC(=O)O)NC(=O)[C@@H](NC(C)=O)C(C)C)CSSC[C@@H](C(=O)N[C@@H](Cc2ccccc2)C(=O)N[C@@H](CCC(=O)O)C(=O)N[C@@H](CCCNC(=N)N)C(=O)N[C@@H](CC(C)C)C(=O)N[C@@H](CCSC)C(=O)N[C@@H](CCCCN)C(=O)N[C@@H](CCC(=O)O)C(=O)N[C@@H](CC(C)C)C(N)=O)NC(=O)[C@H](CCC(=O)O)NC(=O)[C@H](Cc2c[nH]c3ccccc23)NC(=O)[C@H](C(C)C)NC(=O)[C@H](Cc2c[nH]c3ccccc23)NC(=O)[C@H](CCSC)NC(=O)[C@H](C(C)C)NC(=O)[C@H](Cc2c[nH]cn2)NC1=O [Compound 65, VEPNCDIHVMWVWECFERLMKEL] (Ac-VEPNCDIHVMWVWECFERLMKEL-NH2; disulfide 5-15 (inferred))	18
CC[C@H](C)[C@@H]1NC(=O)[C@H](CC(=O)O)NC(=O)[C@@H](NC(=O)[C@H](CC(N)=O)NC(=O)[C@@H]2CCCN2C(=O)[C@H](CCC(=O)O)NC(=O)[C@@H](NC(C)=O)C(C)C)CSSC[C@@H](C(=O)N[C@@H](Cc2ccccc2)C(=O)N[C@@H](CCC(=O)O)C(=O)N[C@@H](CCCNC(=N)N)C(=O)N[C@@H](CC(C)C)C(N)=O)NC(=O)[C@H](CCC(=O)O)NC(=O)[C@H](Cc2c[nH]c3ccccc23)NC(=O)[C@H](C(C)C)NC(=O)[C@H](Cc2c[nH]c3ccccc23)NC(=O)[C@H](CCSC)NC(=O)[C@H](C(C)C)NC(=O)[C@H](Cc2c[nH]cn2)NC1=O [Compound 64, V-E-P-N-C-D-I-H-V-M-W-V-W-E-C-F-E-R-L-] (Ac-VEPNCDIHVMWVWECFERL-NH2; disulfide 5-15 (inferred))	24
CC[C@H](C)[C@@H]1NC(=O)[C@H](CC(=O)O)NC(=O)[C@@H](NC(=O)[C@H](CC(N)=O)NC(=O)[C@@H]2CCCN2C(=O)[C@H](CCC(=O)O)NC(=O)[C@@H](NC(C)=O)C(C)C)CSSC[C@@H](C(=O)N[C@@H](Cc2ccccc2)C(=O)N[C@@H](CCC(=O)O)C(=O)N[C@@H](CCCNC(=N)N)C(=O)N[C@@H](CC(C)C)C(=O)N[C@@H](Cc2ccc(O)cc2)C(=O)NCC(=O)N[C@@H](CC(C)C)C(=O)N[C@@H](CCC(=O)O)C(N)=O)NC(=O)[C@H](CCC(=O)O)NC(=O)[C@H](Cc2c[nH]c3ccccc23)NC(=O)[C@H](C(C)C)NC(=O)[C@H](Cc2c[nH]c3ccccc23)NC(=O)[C@H](CCSC)NC(=O)[C@H](C(C)C)NC(=O)[C@H](Cc2c[nH]cn2)NC1=O [Compound 75, VEPNCDIHVMWVWECFERLYGLE] (Ac-VEPNCDIHVMWVWECFERLYGLE-NH2; disulfide 5-15 (inferred))	3
CC[C@H](C)[C@@H]1NC(=O)[C@H](CC(=O)O)NC(=O)[C@@H](NC(=O)[C@H](CC(N)=O)NC(=O)[C@@H]2CCCN2C(=O)[C@H](CCC(=O)O)NC(=O)[C@@H](NC(C)=O)C(C)C)CSSC[C@@H](C(=O)N[C@@H](Cc2ccccc2)C(=O)N[C@@H](CCC(=O)O)C(=O)N[C@@H](CCCNC(=N)N)C(=O)N[C@@H](CC(C)C)C(=O)N[C@@H](Cc2ccc(O)cc2)C(=O)NCC(=O)N2CCC[C@H]2C(=O)N[C@@H](Cc2ccccc2)C(N)=O)NC(=O)[C@H](CCC(=O)O)NC(=O)[C@H](Cc2c[nH]c3ccccc23)NC(=O)[C@H](C(C)C)NC(=O)[C@H](Cc2c[nH]c3ccccc23)NC(=O)[C@H](CCSC)NC(=O)[C@H](C(C)C)NC(=O)[C@H](Cc2c[nH]cn2)NC1=O [Compound 77, VEPNCDIHVMWVWECFERLYGPF] (Ac-VEPNCDIHVMWVWECFERLYGPF-NH2; disulfide 5-15 (inferred))	1.8
CC[C@H](C)[C@@H]1NC(=O)[C@H](CC(=O)O)NC(=O)[C@@H](NC(=O)[C@H](CC(N)=O)NC(=O)[C@@H]2CCCN2C(=O)[C@H](CCC(=O)O)NC(=O)[C@@H](NC(C)=O)C(C)C)CSSC[C@@H](C(=O)N[C@@H](Cc2ccccc2)C(=O)N[C@@H](CCC(=O)O)C(=O)N[C@@H](CCCNC(=N)N)C(=O)N[C@@H](CC(C)C)C(=O)N[C@@H](Cc2ccc(O)cc2)C(=O)NCC(=O)N2CCC[C@H]2C(=O)N[C@@H](CC(C)C)C(N)=O)NC(=O)[C@H](CCC(=O)O)NC(=O)[C@H](Cc2c[nH]c3ccccc23)NC(=O)[C@H](C(C)C)NC(=O)[C@H](Cc2c[nH]c3ccccc23)NC(=O)[C@H](CCSC)NC(=O)[C@H](C(C)C)NC(=O)[C@H](Cc2c[nH]cn2)NC1=O [Compound 76, VEPNCDIHVMWVWECFERLYGPL] (Ac-VEPNCDIHVMWVWECFERLYGPL-NH2; disulfide 5-15 (inferred))	2.3
CC[C@H](C)[C@@H]1NC(=O)[C@H](CC(=O)O)NC(=O)[C@@H](NC(=O)[C@H](CC(N)=O)NC(=O)[C@@H]2CCCN2C(=O)[C@H](CCC(=O)O)NC(=O)[C@@H](NC(C)=O)C(C)C)CSSC[C@@H](C(=O)N[C@@H](Cc2ccccc2)C(=O)N[C@@H](CCC(=O)O)C(=O)N[C@@H](CCCNC(=N)N)C(=O)N[C@@H](CC(C)C)C(=O)N[C@@H](CCSC)C(=O)N[C@@H](CCCCN)C(N)=O)NC(=O)[C@H](C(C)C)NC(=O)[C@H](Cc2c[nH]c3ccccc23)NC(=O)[C@H](C(C)C)NC(=O)[C@H](Cc2c[nH]c3ccccc23)NC(=O)[C@H](CCSC)NC(=O)[C@H](C(C)C)NC(=O)[C@H](Cc2c[nH]cn2)NC1=O [Compound 38, VEPNCDIHVMWVWVCFERLMK] (Ac-VEPNCDIHVMWVWVCFERLMK-NH2; disulfide 5-15 (inferred))	92.6
CC[C@H](C)[C@H](NC(=O)CNC(=O)[C@H](Cc1ccc(O)cc1)NC(=O)[C@H](CC(C)C)NC(=O)[C@H](CCCNC(=N)N)NC(=O)[C@H](CCC(=O)O)NC(=O)[C@H](Cc1ccccc1)NC(=O)[C@@H]1CSSC[C@H](NC(=O)[C@H](CC(N)=O)NC(=O)[C@@H]2CCCN2C(=O)[C@H](CCC(=O)O)NC(=O)[C@@H](NC(C)=O)C(C)C)C(=O)N[C@@H](CC(=O)O)C(=O)N[C@@H]([C@@H](C)CC)C(=O)N[C@@H](Cc2c[nH]cn2)C(=O)N[C@@H](C(C)C)C(=O)N[C@@H](CCSC)C(=O)N[C@@H](Cc2c[nH]c3ccccc23)C(=O)N[C@@H](C(C)C)C(=O)N[C@@H](Cc2c[nH]c3ccccc23)C(=O)N[C@@H](CCC(=O)O)C(=O)N1)C(=O)N[C@@H](Cc1ccccc1)C(N)=O [Compound 40, VEPNCDIHVMWVWECFERLYGIF] (Ac-VEPNCDIHVMWVWECFERLYGIF-NH2; disulfide 5-15 (inferred))	78.3
CCCC[C@H](NC(=O)[C@H](CC(C)C)NC(=O)[C@H](CCCNC(=N)N)NC(=O)[C@H](CCC(=O)O)NC(=O)[C@H](Cc1ccccc1)NC(=O)[C@@H]1CSSC[C@H](NC(=O)[C@H](CC(N)=O)NC(=O)[C@@H]2CCCN2C(=O)[C@H](CCC(=O)O)NC(=O)[C@@H](NC(C)=O)C(C)C)C(=O)N[C@@H](CC(=O)O)C(=O)N[C@@H]([C@@H](C)CC)C(=O)N[C@@H](Cc2c[nH]cn2)C(=O)N[C@@H](C(C)C)C(=O)N[C@@H](CCSC)C(=O)N[C@@H](Cc2c[nH]c3ccccc23)C(=O)N[C@@H](C(C)C)C(=O)N[C@@H](Cc2c[nH]c3ccccc23)C(=O)N[C@@H](CCC(=O)O)C(=O)N1)C(=O)N[C@@H](CCCCN)C(N)=O [Compound 54, V-E-P-N-C-D-I-H-V-M-W-V-W-E-C-F-E-R-L-(Nle)-K] (Ac-VEPNCDIHVMWVWECFERL[Nle]K-NH2; disulfide 5-15 (inferred))	28.6
